“And” between values parts separate entries of the source, which are not always exact repeats. Identical values can stand only once. Inconclusive results and toxic doses are left out. Peptide text beside a SMILES is read from it. * marks the point of attachment. Trt = c1ccc(C(c2ccccc2)(c2ccccc2)*)cc1; Cbz = O=C(OCc1ccccc1)*; Bn = c1ccc(C*)cc1; βAla = NCCC(=O)O
System: BDF1 mice, B16 melanoma ip, median survival T/C
Assay: NCI In Vivo Anticancer Drug Screen. Data for tumor model B16 Melanoma (intraperitoneal) in B6D2F1 (BDF1) mice
Conditions: endpoint: median survival time, higher = longer survival
How it was run: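 Mice with transplantable tumors; drug vs vehicle groups; endpoint survival or tumor size; value = T/C.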

[1] = dose: 25.0 mg/kg/injection, schedule: Q01DX009 (ip), vehicle: saline with Tween-80
[2] = dose: 50.0 mg/kg/injection, schedule: Q01DX009 (ip), vehicle: saline with Tween-80
[3] = dose: 100.0 mg/kg/injection, schedule: Q01DX009 (ip), vehicle: saline with Tween-80
[4] = dose: 200.0 mg/kg/injection, schedule: Q01DX009 (ip), vehicle: saline with Tween-80
[5] = dose: 12.5 mg/kg/injection, schedule: Q01DX009 (ip), vehicle: Klucel (hydroxypropylcellulose) (HPC)
[6] = dose: 25.0 mg/kg/injection, schedule: Q01DX009 (ip), vehicle: Klucel (hydroxypropylcellulose) (HPC)
[7] = dose: 50.0 mg/kg/injection, schedule: Q01DX009 (ip), vehicle: Klucel (hydroxypropylcellulose) (HPC)
[8] = dose: 100.0 mg/kg/injection, schedule: Q01DX009 (ip), vehicle: Klucel (hydroxypropylcellulose) (HPC)
[9] = dose: 200.0 mg/kg/injection, schedule: Q01DX009 (ip), vehicle: Klucel (hydroxypropylcellulose) (HPC)
[10] = dose: 400.0 mg/kg/injection, schedule: Q01DX009 (ip), vehicle: Klucel (hydroxypropylcellulose) (HPC)
[11] = dose: 400.0 mg/kg/injection, schedule: Q01DX009 (ip), vehicle: saline with Tween-80
[12] = dose: 6.25 mg/kg/injection, schedule: Q01DX009 (ip), vehicle: Klucel (hydroxypropylcellulose) (HPC)

Nc1ccc(N(CCCl)CCN(CCCl)c2ccc(N)cc2)cc1
T/C (dose: 0.36 mg/kg/injection, schedule: Q01DX009 (ip), vehicle: saline): 108 % of control
T/C (dose: 0.75 mg/kg/injection, schedule: Q01DX009 (ip), vehicle: saline): 113 % of control
T/C (dose: 1.5 mg/kg/injection, schedule: Q01DX009 (ip), vehicle: saline): 113 % of control
T/C (dose: 3.0 mg/kg/injection, schedule: Q01DX009 (ip), vehicle: saline): 119 % of control

O=[N+]([O-])c1ccc(N=Nc2c(Cl)cc(O)cc2Cl)cc1
T/C [1]: 101 % of control
T/C [2]: 90 % of control
T/C [3]: 88 % of control
T/C [4]: 90 % of control

C/C1=C/C2=CC(C)C[C@@H]2C(=O)[C@]2(C)C(=O)CC(C)(C)[C@H]2CC1=O (some centres not stated)
T/C (dose: 0.13 mg/kg/injection, schedule: Q01DX009 (ip), vehicle: Klucel (hydroxypropylcellulose) (HPC)): 102 % of control
T/C (dose: 0.25 mg/kg/injection, schedule: Q01DX009 (ip), vehicle: Klucel (hydroxypropylcellulose) (HPC)): 96 % of control
T/C (dose: 0.5 mg/kg/injection, schedule: Q01DX009 (ip), vehicle: Klucel (hydroxypropylcellulose) (HPC)): 96 % of control
T/C (dose: 1.0 mg/kg/injection, schedule: Q01DX009 (ip), vehicle: Klucel (hydroxypropylcellulose) (HPC)): 91 % of control

O=C(CCl)c1ccc(O)c(O)c1
T/C [5]: 94 % of control
T/C [6]: 87 % of control

O=C(Nc1ccc(C(=O)O)cc1)Nc1nccs1
T/C (dose: 25.0 mg/kg/injection, schedule: Q01DX009 (ip), vehicle: distilled water + Tween-80): 113 % of control
T/C (dose: 100.0 mg/kg/injection, schedule: Q01DX009 (ip), vehicle: distilled water + Tween-80): 113 % of control
T/C (dose: 200.0 mg/kg/injection, schedule: Q01DX009 (ip), vehicle: distilled water + Tween-80): 113 % of control

C1CN2CCC1CC2
T/C (dose: 1.56 mg/kg/injection, schedule: Q01DX009 (ip), vehicle: saline with Tween-80): 102 % of control
T/C (dose: 3.12 mg/kg/injection, schedule: Q01DX009 (ip), vehicle: saline with Tween-80): 102 % of control
T/C (dose: 6.25 mg/kg/injection, schedule: Q01DX009 (ip), vehicle: saline with Tween-80): 92 % of control and 99 % of control
T/C (dose: 12.5 mg/kg/injection, schedule: Q01DX009 (ip), vehicle: saline with Tween-80): 86 % of control and 91 % of control
T/C [1]: 86 % of control and 91 % of control

CCC(C)C(C#N)(CCN(CC)CC)c1ccccc1 (configuration not stated)
T/C [6]: 121 % of control
T/C [7]: 118 % of control
T/C [8]: 109 % of control

NC(=O)N/N=C1\CC2C=CCC12 (configuration not stated)
T/C [2]: 105 % of control
T/C [3]: 97 % of control
T/C [4]: 101 % of control

CCCCCCCCCCCC(=O)Nc1ccccc1
T/C [5]: 105 % of control
T/C [6]: 90 % of control
T/C [7]: 92 % of control

Nc1ccccc1S(=O)(=O)Nc1ccccc1
T/C [8]: 96 % of control
T/C [9]: 107 % of control
T/C [10]: 110 % of control

CS(C)=O
T/C (dose: 1:200.0 dilution, schedule: Q03HX088 (ip), vehicle: saline): 89 % of control
T/C (dose: 1:400.0 dilution, schedule: Q03HX088 (ip), vehicle: saline): 89 % of control
T/C (dose: 1.5 grams/kg/injection, schedule: Q01DX009 (ip), vehicle: saline): 96 % of control and 101 % of control
T/C (dose: 3.0 grams/kg/injection, schedule: Q01DX009 (ip), vehicle: saline): 106 % of control and 108 % of control
T/C (dose: 6.0 grams/kg/injection, schedule: Q01DX009 (ip), vehicle: saline): 97 % of control

CCn1c(=O)c2[nH]c(Cl)nc2n(CC)c1=O
T/C (dose: 1.25 mg/kg/injection, schedule: Q## X032 (ip), vehicle: water): 103 % of control
T/C (dose: 2.5 mg/kg/injection, schedule: Q## X032 (ip), vehicle: water): 101 % of control
T/C (dose: 5.0 mg/kg/injection, schedule: Q## X032 (ip), vehicle: water): 103 % of control
T/C (dose: 10.0 mg/kg/injection, schedule: Q## X032 (ip), vehicle: water): 97 % of control

O=C1C=CC(=O)C2=C1C1c3ccccc3C2([N+](=O)[O-])c2ccccc21
T/C [8]: 97 % of control
T/C [9]: 97 % of control
T/C [10]: 100 % of control

Cc1c(C)c([N+](=O)[O-])c(Br)c(C)c1[N+](=O)[O-]
T/C (dose: 100.0 mg/kg/injection, schedule: Q04DX003 (ip), vehicle: Klucel (hydroxypropylcellulose) (HPC)): 91 % of control
T/C (dose: 200.0 mg/kg/injection, schedule: Q04DX003 (ip), vehicle: Klucel (hydroxypropylcellulose) (HPC)): 98 % of control

COC(=O)C(CSC(c1ccccc1)(c1ccccc1)c1ccccc1)NC(=O)C(CSCc1ccccc1)NC(=O)CCNC(=O)OCc1ccccc1 (configuration not stated) ({Cbz-βAla}-Cys(Bn)-Cys(Trt)-OMe; configuration not given here)
T/C [5]: 86 % of control
T/C [6]: 87 % of control and 92 % of control
T/C [7]: 89 % of control and 120 % of control
T/C [10]: 167 % of control

C=C(C)C(=O)O[C@H]1CC2=C[C@@H](C[C@@]3(C)O[C@@H]3[C@H]3OC(=O)C(=C)[C@@H]31)OC2=O
T/C (dose: 3.75 mg/kg/injection, schedule: Q01DX009 (ip), vehicle: Klucel (hydroxypropylcellulose) (HPC)): 89 % of control
T/C (dose: 7.5 mg/kg/injection, schedule: Q01DX009 (ip), vehicle: Klucel (hydroxypropylcellulose) (HPC)): 97 % of control
T/C (dose: 15.0 mg/kg/injection, schedule: Q01DX009 (ip), vehicle: Klucel (hydroxypropylcellulose) (HPC)): 92 % of control

CCOC(=O)c1[nH]c(C)nc1/N=N/N(C)C
T/C (dose: 12.5 mg/kg/injection, schedule: Q01DX009 (ip), vehicle: saline): 111 % of control
T/C (dose: 25.0 mg/kg/injection, schedule: Q01DX009 (ip), vehicle: saline): 110 % of control
T/C (dose: 50.0 mg/kg/injection, schedule: Q01DX009 (ip), vehicle: saline): 111 % of control
T/C (dose: 100.0 mg/kg/injection, schedule: Q01DX009 (ip), vehicle: saline): 123 % of control

CC(=O)NCC1(c2ccccc2)CCN(CCCC(=O)c2ccc(F)cc2)CC1
T/C [7]: 93 % of control
T/C [8]: 106 % of control

Nc1ccc(C(=O)O)c(O)c1
T/C (dose: 9.3 mg/kg/injection, schedule: Q01DX009 (ip), vehicle: saline with Tween-80): 98 % of control
T/C (dose: 18.7 mg/kg/injection, schedule: Q01DX009 (ip), vehicle: saline with Tween-80): 99 % of control
T/C (dose: 37.5 mg/kg/injection, schedule: Q01DX009 (ip), vehicle: saline with Tween-80): 98 % of control
T/C (dose: 75.0 mg/kg/injection, schedule: Q01DX009 (ip), vehicle: saline with Tween-80): 89 % of control

CCN(C(=O)Nc1cccc(Cl)c1)c1ccccc1C
T/C [3]: 100 % of control
T/C [4]: 100 % of control
T/C [11]: 94 % of control

C=C(Cl)c1c(C)cc(C)cc1C
T/C [7]: 87 % of control

c1ccc(-c2nn(-c3ccccc3)[n+](-c3cccc4ccccc34)n2)cc1
T/C (dose: 2.0 mg/kg/injection, schedule: Q01DX009 (ip), vehicle: saline with Tween-80): 97 % of control
T/C (dose: 4.0 mg/kg/injection, schedule: Q01DX009 (ip), vehicle: saline with Tween-80): 93 % of control

O=S(=O)(CCCl)c1ccc2ccccc2c1
T/C [12]: 100 % of control
T/C [5]: 104 % of control
T/C [6]: 106 % of control
T/C [7]: 104 % of control

CCCCC(C)(C(=O)OCC)C(=O)OCC
T/C [5]: 108 % of control
T/C [6]: 101 % of control
T/C [7]: 102 % of control
T/C [8]: 101 % of control
T/C [9]: 102 % of control
T/C [10]: 94 % of control

COc1cc2c(cc1OC)C1CCN3C(=O)CCC3N1CC2 (configuration not stated)
T/C [3]: 94 % of control
T/C [4]: 91 % of control
T/C [11]: 105 % of control

CC1(C)CC(O)(Cc2ccccc2)C(=O)c2ccccc21 (configuration not stated)
T/C [7]: 94 % of control
T/C [8]: 94 % of control
T/C [9]: 99 % of control
T/C [10]: 97 % of control

Cc1cc(O)c2c(c1O)C(=O)C13C(=C2O)C(=O)C2C(O)C1C1C(O)C3C(=O)C3=C(O)c4c(O)cc(C)c(O)c4C(=O)C321 (configuration not stated)
T/C (dose: 0.19 mg/kg/injection, schedule: Q01DX009 (ip), vehicle: saline with Tween-80): 105 % of control
T/C (dose: 0.39 mg/kg/injection, schedule: Q01DX009 (ip), vehicle: saline with Tween-80): 114 % of control
T/C (dose: 0.78 mg/kg/injection, schedule: Q01DX009 (ip), vehicle: saline with Tween-80): 121 % of control

O=C(O)CCCSc1nc2ccccc2s1
T/C [3]: 100 % of control
T/C [4]: 95 % of control

COc1ccccc1CC(C)N (configuration not stated)
T/C (dose: 20.0 mg/kg/injection, schedule: Q01DX009 (ip), vehicle: saline with Tween-80): 97 % of control
T/C (dose: 40.0 mg/kg/injection, schedule: Q01DX009 (ip), vehicle: saline with Tween-80): 95 % of control

CCCCCC[C@H]([C@H](C)O)n1cnc2c(N)ncnc21
T/C [12]: 93 % of control
T/C [5]: 86 % of control
T/C [6]: 93 % of control and 94 % of control
T/C [7]: 93 % of control and 106 % of control
T/C [8]: 104 % of control

COc1cccc(O)c1
T/C [1]: 97 % of control
T/C [2]: 96 % of control
T/C [3]: 91 % of control
T/C [4]: 86 % of control

Cc1ccc(SSc2ccc(C)cc2[N+](=O)[O-])c([N+](=O)[O-])c1
T/C [6]: 100 % of control
T/C [7]: 89 % of control
T/C [8]: 86 % of control and 93 % of control
